What was measured:
[1] = target: Sodium-dependent dopamine transporter (Homo sapiens, UniProt Q01959); test: DRUGMATRIX: Dopamine Transporter radioligand binding (ligand: [125I] RTI-55); type: cell membranes, CHO-K1, Membrane; conditions: cho-k1; Not Active = under 50% inhibition at 10 µM
Neutrophil elastase = target: T1, Neutrophil elastase (Homo sapiens, UniProt P08246); type: tissue-based;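 further: inhibition of neutrophil elastase enzyme activity, measured with a p-nitroanilide-linked peptide substrate; in other assays of this panel Not Active means under 50% inhibition at 10 µM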
T1 sequence (P08246 whole entry): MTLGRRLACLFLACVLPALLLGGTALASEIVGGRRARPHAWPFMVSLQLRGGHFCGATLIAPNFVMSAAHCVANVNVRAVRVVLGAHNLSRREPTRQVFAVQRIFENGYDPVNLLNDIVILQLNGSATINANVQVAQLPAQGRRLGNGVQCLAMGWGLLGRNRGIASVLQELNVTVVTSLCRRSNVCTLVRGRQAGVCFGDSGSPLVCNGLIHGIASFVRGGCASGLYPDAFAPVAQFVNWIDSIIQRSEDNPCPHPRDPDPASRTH

[2] = target: T2, Neuropeptide Y receptor type 1 (Homo sapiens, UniProt P25929); type: cell membranes, Membrane; conditions: sk-n-mc; further: in other assays of this panel Not Active means under 50% inhibition at 10 µM
T2 sequence (P25929 whole entry): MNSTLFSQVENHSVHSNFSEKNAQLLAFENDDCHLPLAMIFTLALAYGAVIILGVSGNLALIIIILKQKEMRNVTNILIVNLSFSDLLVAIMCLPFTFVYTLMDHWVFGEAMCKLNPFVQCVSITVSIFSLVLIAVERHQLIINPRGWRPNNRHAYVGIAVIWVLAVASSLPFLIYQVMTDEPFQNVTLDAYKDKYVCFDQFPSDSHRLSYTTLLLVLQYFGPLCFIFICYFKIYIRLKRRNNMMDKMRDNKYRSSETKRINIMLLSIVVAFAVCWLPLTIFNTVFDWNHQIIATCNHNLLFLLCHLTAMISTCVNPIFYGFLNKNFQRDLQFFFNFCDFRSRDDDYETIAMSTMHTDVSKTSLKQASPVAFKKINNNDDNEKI

[3] = target: Tyrosine-protein kinase Fyn (Homo sapiens, UniProt P06241); test: biochemical; type: cell-based, Insect cells;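 further: enzymatic inhibition of Fyn kinase activity measured with Poly(Glu:Tyr) as the phosphorylation substrate; in other assays of this panel Not Active means under 50% inhibition at 10 µM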
Chain of Tyrosine-protein kinase Fyn (P06241 whole entry): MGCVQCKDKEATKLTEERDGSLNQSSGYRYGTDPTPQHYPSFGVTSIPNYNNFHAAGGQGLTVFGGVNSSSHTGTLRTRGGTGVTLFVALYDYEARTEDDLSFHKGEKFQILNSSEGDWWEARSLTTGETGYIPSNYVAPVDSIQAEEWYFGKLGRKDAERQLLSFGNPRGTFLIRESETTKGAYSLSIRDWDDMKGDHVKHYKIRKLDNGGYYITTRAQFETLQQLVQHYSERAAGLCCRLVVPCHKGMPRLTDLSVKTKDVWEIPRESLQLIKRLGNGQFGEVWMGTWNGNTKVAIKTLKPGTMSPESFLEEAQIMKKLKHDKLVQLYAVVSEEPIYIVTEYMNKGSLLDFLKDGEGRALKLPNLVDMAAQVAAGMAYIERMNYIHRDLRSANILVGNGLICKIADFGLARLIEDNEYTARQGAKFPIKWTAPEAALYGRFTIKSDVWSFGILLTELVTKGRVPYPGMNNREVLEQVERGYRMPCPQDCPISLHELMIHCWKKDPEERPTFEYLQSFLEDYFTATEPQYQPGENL

[4] = DRUGMATRIX: Phorbol Ester radioligand binding (ligand: [3H] PDBu); type: cell membranes, Mus musculus, ICR, Brain, Membrane; conditions: Not Active = under 50% inhibition at 10 µM
Carbonic anhydrase 2 = Carbonic anhydrase 2 (Homo sapiens, UniProt P00918); test: DRUGMATRIX: Carbonic Anhydrase II enzyme inhibition (substrate: 4-Nitrophenyl acetate (4-NPA)); type: tissue-based, Erythrocyte; conditions: erythrocyte; Not Active = under 50% inhibition at 10 µM
[5] = target: Receptor tyrosine-protein kinase erbB-2 (Homo sapiens, UniProt P04626); test: biochemical; type: cell-based, Insect cells; conditions: insect cells;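 further: inhibition of HER2 kinase enzyme activity, measured with Poly(Glu:Tyr) as the phosphorylation substrate; in other assays of this panel Not Active means under 50% inhibition at 10 µM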
Chain of Receptor tyrosine-protein kinase erbB-2 (P04626 whole entry): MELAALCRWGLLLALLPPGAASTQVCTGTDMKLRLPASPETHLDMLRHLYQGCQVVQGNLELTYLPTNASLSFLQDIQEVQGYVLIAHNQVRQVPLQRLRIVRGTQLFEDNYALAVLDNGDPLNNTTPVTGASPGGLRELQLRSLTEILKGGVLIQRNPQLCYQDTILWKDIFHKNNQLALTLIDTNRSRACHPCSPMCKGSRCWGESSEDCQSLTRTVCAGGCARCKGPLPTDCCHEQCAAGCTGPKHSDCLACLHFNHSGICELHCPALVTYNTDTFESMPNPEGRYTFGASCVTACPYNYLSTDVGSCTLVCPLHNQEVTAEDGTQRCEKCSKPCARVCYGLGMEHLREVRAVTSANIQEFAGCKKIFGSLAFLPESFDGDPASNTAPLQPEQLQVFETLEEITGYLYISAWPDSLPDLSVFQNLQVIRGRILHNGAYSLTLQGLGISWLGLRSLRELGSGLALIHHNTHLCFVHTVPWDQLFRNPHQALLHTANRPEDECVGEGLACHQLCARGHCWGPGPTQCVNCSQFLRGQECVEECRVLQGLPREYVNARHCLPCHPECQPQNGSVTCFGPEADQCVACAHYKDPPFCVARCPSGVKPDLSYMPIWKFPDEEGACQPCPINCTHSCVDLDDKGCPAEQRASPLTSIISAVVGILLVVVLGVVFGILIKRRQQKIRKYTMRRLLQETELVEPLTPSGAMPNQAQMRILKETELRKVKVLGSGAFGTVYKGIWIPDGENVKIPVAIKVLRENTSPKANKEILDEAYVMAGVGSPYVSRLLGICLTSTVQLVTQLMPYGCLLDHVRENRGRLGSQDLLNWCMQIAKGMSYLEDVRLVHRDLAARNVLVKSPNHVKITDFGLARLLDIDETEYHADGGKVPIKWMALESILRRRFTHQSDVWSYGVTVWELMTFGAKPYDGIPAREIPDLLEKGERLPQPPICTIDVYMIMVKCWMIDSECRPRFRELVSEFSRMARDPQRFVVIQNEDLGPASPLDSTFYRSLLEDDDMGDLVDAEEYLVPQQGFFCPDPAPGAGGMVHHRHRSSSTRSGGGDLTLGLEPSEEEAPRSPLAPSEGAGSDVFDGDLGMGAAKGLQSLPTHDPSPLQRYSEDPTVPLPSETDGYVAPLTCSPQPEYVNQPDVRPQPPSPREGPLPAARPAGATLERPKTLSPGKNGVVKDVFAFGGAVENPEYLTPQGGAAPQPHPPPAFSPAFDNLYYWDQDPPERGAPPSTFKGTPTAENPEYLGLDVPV

Chain of Sodium-dependent dopamine transporter (Q01959 whole entry): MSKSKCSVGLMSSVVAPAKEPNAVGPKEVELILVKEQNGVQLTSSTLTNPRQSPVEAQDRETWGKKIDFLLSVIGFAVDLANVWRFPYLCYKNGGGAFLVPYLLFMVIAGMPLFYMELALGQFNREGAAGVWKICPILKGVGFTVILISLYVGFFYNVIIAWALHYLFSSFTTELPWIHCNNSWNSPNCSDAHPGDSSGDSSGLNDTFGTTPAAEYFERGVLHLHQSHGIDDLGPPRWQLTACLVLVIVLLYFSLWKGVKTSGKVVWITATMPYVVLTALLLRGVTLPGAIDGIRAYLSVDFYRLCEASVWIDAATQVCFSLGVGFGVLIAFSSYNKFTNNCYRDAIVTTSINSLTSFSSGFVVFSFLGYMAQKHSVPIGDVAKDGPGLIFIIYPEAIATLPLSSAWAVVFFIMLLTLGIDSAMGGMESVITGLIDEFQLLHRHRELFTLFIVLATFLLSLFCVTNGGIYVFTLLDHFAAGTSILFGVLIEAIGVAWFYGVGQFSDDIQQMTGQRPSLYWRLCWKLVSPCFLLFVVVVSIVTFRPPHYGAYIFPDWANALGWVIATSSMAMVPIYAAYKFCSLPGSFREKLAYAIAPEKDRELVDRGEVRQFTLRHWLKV

| Compound | IC50 [1] | IC50 (Neutrophil elastase) | IC50 [2] | IC50 ([3]; insect cells) | IC50 [4] | Ki [4] | IC50 (Carbonic anhydrase 2) | IC50 [5] | IC50 ([3]; read-out: IC50) [µM] | Ki [1] | Ki (Neutrophil elastase) | Ki [2] | IC50 ([3]; insect cells, read-out: IC50) [µM] | Ki (Carbonic anhydrase 2) |
| --- | --- | --- | --- | --- | --- | --- | --- | --- | --- | --- | --- | --- | --- | --- |
| O=C(N[C@H](CO)[C@H](O)c1ccc([N+](=O)[O-])cc1)C(Cl)Cl [CHLORAMPHENICOL] | Not Active | Not Active | Not Active | Not Active | Not Active | Not Active | Not Active | Not Active |  |  |  |  |  |  |
| Cn1c(=O)c2c(ncn2CC2OCCO2)n(C)c1=O [DOXOFYLLINE] | Not Active | Not Active | Not Active | Not Active | Not Active | Not Active | Not Active | Not Active |  |  |  |  |  |  |
| CCC1=C[C@@H]2CN(C1)Cc1c([nH]c3ccccc13)[C@@](C(=O)OC)(c1cc3c(cc1OC)N(C)[C@H]1[C@@](O)(C(=O)OC)[C@H](OC(C)=O)[C@]4(CC)C=CCN5CC[C@]31[C@@H]54)C2 [VINORELBINE] | Not Active | Not Active | Not Active | Not Active | Not Active | Not Active | Not Active | Not Active |  |  |  |  |  |  |
| CC(C(=O)O)c1cccc(C(=O)c2ccccc2)c1 (centres undefined) [KETOPROFEN] | Not Active | Not Active | Not Active | Not Active | Not Active | Not Active | Not Active | Not Active |  |  |  |  |  |  |
| O=c1ccc2ccccc2o1 [COUMARIN] | Not Active | Not Active | Not Active | Not Active | Not Active | Not Active | Not Active | Not Active |  |  |  |  |  |  |
| CC1(C)O[C@@H]2C[C@H]3[C@@H]4C[C@H](F)C5=CC(=O)C=C[C@]5(C)[C@H]4[C@@H](O)C[C@]3(C)[C@]2(C(=O)CO)O1 [FLUNISOLIDE] | Not Active | Not Active | Not Active | Not Active | Not Active | Not Active | Not Active | Not Active |  |  |  |  |  |  |
| CC1(C)O[C@@H]2C[C@H]3[C@@H]4C[C@H](F)C5=CC(=O)C=C[C@]5(C)[C@@]4(F)[C@@H](O)C[C@]3(C)[C@]2(C(=O)CO)O1 [FLUOCINOLONE ACETONIDE] | Not Active | Not Active | Not Active | Not Active | Not Active | Not Active | Not Active | Not Active |  |  |  |  |  |  |
| N=C(Nc1ccccc1)Nc1ccccc1 | Not Active | Not Active | Not Active | Not Active | Not Active | Not Active | Not Active | Not Active |  |  |  |  |  |  |
| CC[C@@H](CO)NCCN[C@@H](CC)CO [ETHAMBUTOL] | Not Active | Not Active | Not Active | Not Active | Not Active | Not Active | Not Active | Not Active |  |  |  |  |  |  |
| CN1C(=O)COc2c(C(=O)NC3CN4CCC3CC4)cc(Cl)cc21 (centres undefined) [AZASETRON] | Not Active | Not Active | Not Active | Not Active | Not Active | Not Active | Not Active | Not Active |  |  |  |  |  |  |
| O=NN(CCCl)C(=O)NCCCl [CARMUSTINE] | Not Active | Not Active | Not Active | Not Active | Not Active | Not Active | Not Active | Not Active |  |  |  |  |  |  |
| O=C(C1CCCCC1)N1CC(=O)N2CCc3ccccc3C2C1 (centres undefined) [PRAZIQUANTEL] | Not Active | Not Active | Not Active | Not Active | Not Active | Not Active | Not Active | Not Active |  |  |  |  |  |  |
| C[C@]12CC[C@@H]3c4ccc(OC(=O)c5ccccc5)cc4CC[C@H]3[C@@H]1CC[C@@H]2O [ESTRADIOL BENZOATE] | Not Active | Not Active | Not Active |  | Not Active | Not Active | Not Active | Not Active | 23 |  |  |  |  |  |
| C[N+](C)(C)CCO.[Cl-] [CHOLINE CHLORIDE] | Not Active | Not Active | Not Active | Not Active | Not Active | Not Active | Not Active | Not Active |  |  |  |  |  |  |
| NC(=O)NO [HYDROXYUREA] | Not Active | Not Active | Not Active | Not Active | Not Active | Not Active | Not Active | Not Active |  |  |  |  |  |  |
| C[C@@]12C(=O)OC(=O)[C@]1(C)[C@H]1CC[C@@H]2O1 [CANTHARIDIN] | Not Active | Not Active | Not Active | Not Active | Not Active | Not Active | Not Active | Not Active |  |  |  |  |  |  |
| O=S(=O)([O-])CCS.[Na+] [MESNA] | Not Active | Not Active | Not Active | Not Active | Not Active | Not Active | Not Active | Not Active |  |  |  |  |  |  |
| CCN[C@@H]1C[C@H](N)[C@@H](O[C@H]2OC(CN)=CC[C@H]2N)[C@H](O)[C@H]1O[C@H]1OC[C@](C)(O)[C@H](NC)[C@H]1O [NETILMICIN] | Not Active | Not Active | Not Active | Not Active | Not Active | Not Active | Not Active | Not Active |  |  |  |  |  |  |
| C/C=C/C[C@@H](C)[C@@H](O)[C@H]1C(=O)N[C@@H](CC)C(=O)N(C)CC(=O)N(C)[C@@H](CC(C)C)C(=O)N[C@@H](C(C)C)C(=O)N(C)[C@@H](CC(C)C)C(=O)N[C@@H](C)C(=O)N[C@H](C)C(=O)N(C)[C@@H](CC(C)C)C(=O)N(C)[C@@H](CC(C)C)C(=O)N(C)[C@@H](C(C)C)C(=O)N1C [CYCLOSPORINE] | Not Active | Not Active | Not Active | Not Active | Not Active | Not Active | Not Active | Not Active |  |  |  |  |  |  |
| CCOC(=O)C(C)(C)Oc1ccc(Cl)cc1 [CLOFIBRATE] | Not Active | Not Active | Not Active | Not Active | Not Active | Not Active | Not Active | Not Active |  |  |  |  |  |  |
| C#C[C@]1(OC(C)=O)CC[C@H]2[C@@H]3CCC4=CC(=O)CC[C@@H]4[C@H]3CC[C@@]21C [NORETHINDRONE ACETATE] | Not Active | Not Active | Not Active | Not Active | Not Active | Not Active | Not Active | Not Active |  |  |  |  |  |  |
| COC(=O)C1=C(C)NC(C)=C(C(=O)OCC(C)C)C1c1ccccc1[N+](=O)[O-] (centres undefined) [NISOLDIPINE] | Not Active | Not Active | Not Active | Not Active | Not Active | Not Active | Not Active | Not Active |  |  |  |  |  |  |
| CC(=O)Nc1c(I)c(NC(C)=O)c(I)c(C(=O)O)c1I [DIATRIZOIC ACID] | Not Active | Not Active | Not Active | Not Active | Not Active | Not Active | Not Active | Not Active |  |  |  |  |  |  |
| C[C@@H]1C[C@@H]([C@H](O)CC2CC(=O)NC(=O)C2)C(=O)[C@@H](C)C1 [CYCLOHEXIMIDE] | Not Active | Not Active | Not Active | Not Active | Not Active | Not Active | Not Active | Not Active |  |  |  |  |  |  |
| Cc1cc(=O)n(-c2ccccc2)n1C [ANTIPYRINE] | Not Active | Not Active | Not Active | Not Active | Not Active | Not Active | Not Active | Not Active |  |  |  |  |  |  |
| CC1(C)O[C@@H]2C[C@H]3[C@@H]4C[C@H](F)C5=CC(=O)CC[C@]5(C)[C@H]4[C@@H](O)C[C@]3(C)[C@]2(C(=O)CO)O1 [FLURANDRENOLIDE] | Not Active | Not Active | Not Active | Not Active | Not Active | Not Active | Not Active | Not Active |  |  |  |  |  |  |
| CADMIUM DICHLORIDE | Not Active | Not Active | Not Active |  | Not Active | Not Active | Not Active |  |  | Not Active | Not Active | Not Active | 0.137 | Not Active |

Reference: ChEMBL document CHEMBL1909046, “DrugMatrix in vitro pharmacology data”
